This is an account of results in patent publication US20100138957A1 (priority 2007, published 2010).

For the test, the system named is Xylella fastidiosa. Particulars: in vivo.

As for “MAKWKLFKKIGIGFKKAAHVGKAALTK [B-passerin]”, the PD resistance index result is listed as “higher than that of tolerant control plants” and the “resistance to X. fastidiosa conferred in transgenic grape plants” value is on record as “significantly higher level of resistance”.
